The nature of the data set: Human HepG2 cell viability assay in 384 well format. The data set is classed as toxicity, cell-based. Also on record: dose 125 nL, time 70.5 hour; cytotoxicity at 70.5 h: concentration not given beside the values. The note with it: HepG2 cells, read-out: Inhibition.

Each structure is given as a SMILES string.

As to `O=C(CN1CCc2ccccc2C1)NCc1ccco1`, the cytotoxicity at 70.5 h was found to be 3.48%.
Then `COc1ccc(C(=O)NCCCNc2ncccn2)cc1F`, with 3.94%; and `OC(COCc1ccccc1)CSc1nnc2ccccn12` (centres undefined), with -5.06%; and `CCCc1noc(CCC(=O)Nc2cc(C(F)(F)F)c[nH]c2=O)n1`, with -6.41%.
Then `O=C(c1nc(=O)[nH][nH]1)N1CCCN(CC2CCCCC2)CC1`, with -7.64%; and `CNC(=O)c1ccc(NC(=O)NC(C)c2cc(C)oc2C)cc1` (centres undefined), with -8.2%; and `CN(C)CCN(Cc1ccccc1)C(=O)C1=NNC(=O)CC1`, with -6.1%.
Next, `CN(Cc1cccs1)C(=O)c1ccc(=O)n(C)c1`: -5.37%; `CCOc1ccc(C(=O)NCCCNc2ncccn2)cc1`: 17.7%; `NC(=O)C1=NC2=NS(=O)(=O)c3ccccc3N2N1Cc1ccccc1Cl`: -7.31%.
`Cn1c(N)nnc1SCc1cc(Br)ccc1Cl`: the cytotoxicity at 70.5 h was -10.9%.
Regarding `Cn1cc(S(=O)(=O)Nc2c(F)cccc2N2CCCC2)cn1`, the cytotoxicity at 70.5 h is -4.97%.
As for `COCCNc1ccccc1CNC(=O)C1CCCOC1` (centres undefined), the cytotoxicity at 70.5 h is -2.32%.
Next, `CCOc1ccc(NC2CCN(C3CC3)C2=O)cn1` (centres undefined): -1.16%.
Next, `Cc1cc(S(=O)(=O)Nc2onc(C)c2C)sc1C`: -5.02%; `CC(C)(C)Cc1nnc(NCc2cccc(C#N)c2)o1`: -1.69%.
Next, `CN(Cc1ncnn1C)C(=O)Nc1ccc(OC(F)F)cc1`: -8.26%.
As for `Cc1ncc2c(n1)CN(CCOCC(F)(F)F)CC2`, the cytotoxicity at 70.5 h is -4.14%.
Next, `FC(F)(F)COCCN1CCc2cncnc2C1`: -2.38%; `CCc1nc(C2CCCN2C(=O)c2ccc(=O)n(CC)n2)no1` (centres undefined): 4.08%.
Then `CCn1nc(C(=O)N2CCCC2c2noc(C)n2)ccc1=O` (centres undefined), with -3.84%; and `CCN(CC)c1ccc(NC(=O)NCC2CCOC2)cn1` (centres undefined), with -12.2%.
Next, `CC(C)(CNc1cn[nH]c(=O)c1Cl)c1ccc2c(c1)OCCO2`: -13.9%.
Consider `Cc1noc(C2CCN(C(C)c3nc(C4CC4)no3)CC2)n1` (centres undefined), for which the cytotoxicity at 70.5 h was -16.9%.
As for `CCc1ccc(CCC(=O)NCc2nnc[nH]2)cc1`, the cytotoxicity at 70.5 h was -19.3%.
For `CC(c1nc(C(C)(C)C)no1)N1CCC(N2CCCC2)CC1` (centres undefined), the cytotoxicity at 70.5 h was 4.89%.
Next, `O=C(C1CSc2ccccc2O1)N1CCN(CCO)CC1` (centres undefined): -14.3%; `CNC(=O)CN(C)c1cncc(OCC(C)C)n1`: -5.85%.
Next, `CCC(NC(=O)c1cccc2[nH]ccc12)C(=O)N1CCOCC1` (centres undefined): -6.49%; `O=C(CCc1ccc(Br)cc1)NCc1nnc[nH]1`: -9.74%.
In the case of `CCn1c(CN(C)C(C)CSC)nc2c(F)cccc21` (centres undefined), the cytotoxicity at 70.5 h is -3.45%.
Consider `CN(C)Cc1nc(C(C)(C)NC(=O)c2ccnn2C)no1`, for which the cytotoxicity at 70.5 h worked out at 8.69%.
In the case of `Cc1ccc(C)c(OCC(O)CN(C)CC(=O)Nc2cc(C)on2)c1` (centres undefined), the cytotoxicity at 70.5 h came out at 3.48%.
Next, `Cc1ccc(OCCC(=O)N(C)CC(=O)Nc2cc(C)on2)c(C)c1`: -4.37%; `COc1ccc2nc(C)c(C(=O)NCCN3CCS(=O)(=O)CC3)cc2c1`: -1.47%; `Cn1nccc1C(=O)NC(C)(C)c1noc(C(C)(C)C)n1`: -16.4%.
Next, `CCN1CCN(CCCNC(=O)c2cc3ccc(C)cc3nc2C)CC1`: -2.81%; `CNC(=O)C(CCSC)NC(=O)c1ccc2ccccc2n1` (centres undefined): -11%.
Then `COCC(O)CN(C)C(=O)NC1CCN(S(C)(=O)=O)CC1` (centres undefined), with -7.83%; and `Cc1nccn1-c1ncccc1CNC(=O)c1ccc(O)nc1`, with -10.6%.
For `Cc1ccccc1C(C)NC(=O)c1ccc(=O)n(C)c1` (centres undefined), the cytotoxicity at 70.5 h was -4.64%.
Then `Cc1nnc(CN(Cc2cccc(Cl)c2)C(C)C)o1`, with -16.1%.
As for `CS(=O)(=O)Cc1cc(Cl)c2c(c1)OCCCO2`, the cytotoxicity at 70.5 h was -3.38%.
Next, `CC(C)C(C)(C#N)NC(=O)Cn1cc(-c2ccccc2)cn1` (centres undefined): -5.67%; `Cc1noc(C)c1CNc1c(N2CCCC2)cccc1N1CCCC1`: -5.49%.
Next, `CSCCC(NC(=O)c1ccc2ccccc2n1)C(=O)O` (centres undefined): 4.89%; `CC(C)(C)n1cc(C(=O)O)c(-c2ccc(F)cc2F)n1`: -18.2%; `CC(C)C(C)(C#N)NC(=O)Cn1cc(Cl)cn1` (centres undefined): -6.35%.
Then `CCN(Cc1csc(CS(C)(=O)=O)n1)c1cccc(F)c1`, with -7.29%.
Consider `Cc1nccn1-c1ccc(CNC(=O)c2ccc([S+](C)[O-])cc2)cn1` (centres undefined), for which the cytotoxicity at 70.5 h was -3.4%.
For `CS(=O)(=O)CCS(=O)(=O)Cc1cc(Cl)c2c(c1)OCCCO2`, the cytotoxicity at 70.5 h was -5.05%.
Then `CCc1c(C)nc2ccccc2c1N1CCC(C(=O)NC)CC1`, with -5.91%; and `CCc1c(C)nc2ccccc2c1N1CCC(NC(C)=O)CC1`, with -6.65%; and `CC1CN(C(=O)CCc2cc(Br)cs2)CCO1` (centres undefined), with -4.33%.
Then `CS(=O)(=O)CCCNC1(c2ccc(Br)cc2)CCC1`, with -5.79%.
Then `Cc1nnc(CN(Cc2ccc(Cl)c(Cl)c2)C2CC2)o1`, with -3.07%; and `Cc1cc(C(=O)N2CCc3c(ncn3CCc3ccccc3)C2)on1`, with -7.15%.
As for `CC(C)N1CCC(N(C)c2ccnc(N(C)C)n2)CC1`, the cytotoxicity at 70.5 h was -2.26%.
Then `Cc1cc(C)c(C(=O)N2CCc3c(ncn3CCc3ccccc3)C2)[nH]1`, with -8.62%; and `Cc1nonc1C(=O)N1CCc2c(ncn2CCc2ccccc2)C1`, with -7.1%; and `CN(C)c1nccc(N(C)C2CCN(CC3CCOC3)CC2)n1` (centres undefined), with -4.93%.
Take `COc1c(C)cnc(CN(C)C2CCCCC2)c1C`: the cytotoxicity at 70.5 h was 8.25%.
With `Cc1cnn(CCNCC(=O)N(C)C(C)c2ccccc2)c1` (centres undefined), the cytotoxicity at 70.5 h is -10.5%.
Next, `CCN1CCN(c2ccc(NC(=O)CC(C)C)c(C)c2)CC1`: -20.9%; `CNC(=O)NC(=O)C(C)N1CCN(c2ccc(C#N)cc2F)CC1` (centres undefined): -12.9%; `N#Cc1c(F)cccc1N1CCCC(C(=O)Nc2nncs2)C1` (centres undefined): -16.9%.
Next, `Cc1ccc(OCCCNC(=O)CN(C)c2ccc(C#N)cn2)cc1`: 3.18%; `COCCNC(=O)NC(=O)CNc1c(F)cccc1N1CCCC1`: -16.6%.
Then `COc1c(C)cnc(CN(C)C2CCN(C3CCOCC3)CC2)c1C`, with -0.744%.
Turning to `Cc1cnn(CCNCC(=O)NC(c2ccccc2)c2ccccc2)c1`, the cytotoxicity at 70.5 h is -16%.
Next, `CC1(C)Cc2ccc(C(=O)NC3CCOCC3)c(O)c2O1`: 7.2%; `O=C(Nc1cccs1)NC(CCCO)c1ccccc1` (centres undefined): -17.7%.
Next, `CCNC(=O)N1CCc2ccc(NC(=O)NCC3CC3)cc21`: -12.1%; `COc1ccccc1C(C)(C)NC(=O)NCCC(=O)NC1CCCC1`: -12.5%.
Then `COc1ncccc1NC(=O)NC(CCCO)c1ccccc1` (centres undefined), with 11.2%; and `O=C(Nc1ccccn1)NC(CCCO)c1ccccc1` (centres undefined), with -5.11%.
As for `Cn1cccc1C(=O)NC1(C(=O)NCC2CC2)CCCC1`, the cytotoxicity at 70.5 h was -11.4%.
Next, `O=C1C(Nc2nccn3cnnc23)CCCN1c1ccccc1Cl` (centres undefined): -2.45%.
As to `O=C1CC[C@H](C(=O)Nc2cnn(-c3ccccc3Br)c2)N1`, the cytotoxicity at 70.5 h is -16.8%.
Next, `Cc1cc(F)ccc1N1CCCC(Nc2nccn3cnnc23)C1=O` (centres undefined): -2.63%; `N#Cc1ccc(F)cc1Cn1cnc(C2CCC2)cc1=O`: -9.04%; `N#Cc1cc(Cn2cnc(C3CCC3)cc2=O)ccc1F`: -15.4%.
As to `CC(C)(C)c1nc(NS(=O)(=O)c2ccccc2F)no1`, the cytotoxicity at 70.5 h is -18.1%.
Consider `CC(C)(C)c1nc(NS(=O)(=O)c2cccc(F)c2)no1`, for which the cytotoxicity at 70.5 h is -8.66%.
Then `CCN1CCCN(C(=O)c2ccc(NC(=O)CC(C)C)c(C)c2)CC1`, with -12.9%.
For the molecule `COC(=O)c1ccc(CN(C)C(=O)c2cnsn2)cc1`, the cytotoxicity at 70.5 h is -14.6%.
`c1cc(CN2CCCCC2)cc(NCc2cc[nH]n2)c1`: the cytotoxicity at 70.5 h was 7.51%.
Turning to `Cc1ccccc1CN(CC(=O)O)C(=O)COCC1CC1`, the cytotoxicity at 70.5 h was determined as 0.683%.
Then `CC(C)n1ncc2c1NC(=O)C(C#N)C21CCCC1` (centres undefined), with -11.3%.
Then `CCn1ncc2c1NC(=O)C(C#N)C21CCCC1` (centres undefined), with -11.6%; and `N#CC1C(=O)Nc2c(cnn2C2CCCC2)C12CCCCC2` (centres undefined), with -1.92%; and `CC(C)C(NC(=O)c1ccc(Cl)cc1Cl)C(=O)Nc1cnn(C)c1` (centres undefined), with 4.14%.
Consider `O=C(NCc1ccnc(O)c1)NCC1CCCC1`, for which the cytotoxicity at 70.5 h is -1.59%.
Then `COCC(=O)NCCc1ccc(I)s1`, with -8.78%.
Consider `CC(C)COCC(NC(=O)CSc1nnc[nH]1)c1ccco1` (centres undefined), for which the cytotoxicity at 70.5 h was -12.5%.
Then `CC(C)(C)C(O)CN1CCN(CC(=O)NC2CCOCC2)CC1` (centres undefined), with -7.28%; and `CCOc1cc(NC(=O)NCCn2cnnc2CC)ccc1C`, with -6.28%; and `CCc1nc2n(n1)CCCC2NC(=O)Nc1ccc(F)cc1C#N` (centres undefined), with 1.79%.
Next, `CC(C)(C)OC(=O)NC1(c2noc(-c3ccoc3)n2)CCC1`: -6.71%.
With `CCc1nc2n(n1)CCCC2NC(=O)Nc1cccc(F)c1F` (centres undefined), the cytotoxicity at 70.5 h came out at 4.24%.
Next, `CNC(=O)CC1CCN(C(=O)Nc2ccc(-c3cc[nH]n3)cc2)CC1`: -4.66%; `O=S(=O)(Cc1ccccc1)NCc1ccnc(O)c1`: 0.635%; `O=S(=O)(CC1CCCCC1)NCc1ccc(O)nc1`: -10.2%.
Next, `COc1cc(N2CCCC3(CCN(c4cccnc4)C3=O)C2)ncn1` (centres undefined): 19.9%.
